IC50 and Activity data for 28 molecules are collected here from ChEMBL document CHEMBL5506049, “Discovery of Novel Small-Molecule-Based Potential PD-L1/EGFR Dual Inhibitors with High Druggability for Glioblastoma Immunotherapy” (J Med Chem, 2024).

In one assay the test system is U-87 MG. Nature of the assay: cells. As to conditions: Homo sapiens, 72 h.
Assay [1] is described as follows: cells. As to conditions: GL261, 72 h.
Description: Antiproliferative activity against human GL261 cells incubated for 72 hrs by MTT assay
The nature of assay [2]: cells. As to conditions: Homo sapiens, U87MG Human EGFR vIII, 72 h.
Description: Antiproliferative activity against human U87vIII cells expressing EGFRvIII incubated for 72 hrs by MTT assay
A further assay has as its system U-251. Description: cells. As to conditions: Homo sapiens, U-251, 72 h.
Assay [3] is described as follows: In vivo antitumor activity against […] GL261 cells xenografted in C57BL/6 mouse assessed as decrease in tumor volume at 100 mg/kg, IG treated for 21 days relative to control. On the set-up: scale not given: the % may be the effect or the level left. The format is functional. Particulars: time 21 day. On the technique in general: In xenograft studies the graft and the host belong to different species.

Assay [4] is described as follows: In vivo antitumor activity against […] GL261 cells xenografted in C57BL/6 mouse assessed as decrease in tumor weight at 100 mg/kg, IG treated for 21 days relative to control. Set-up: scale not given: the % may be the effect or the level left. As to conditions: time 21 day. The class given is functional.
In assay [5] the test system is Glioblastoma cell line. Description: Antitumor immunity against glioblastoma bearing C57BL/6 mouse model assessed as tumor infiltrating lymphocytes by measuring increase in CD3+CD8+T cells at 100 mg/kg, IG (reference value: 3.44%). The format is functional.
Assay [6] has as its target Programmed cell death protein 1/Programmed cell death 1 ligand 1 (Homo sapiens, UniProt Q9NZQ7). Nature of the assay: Inhibition of PD-1/PD-L1 (unknown origin) interaction assessed as inhibition rate incubated for 1 hr by HTRF assay relative to control. The format is protein-complex assay. A general note: TR-FRET usually uses a lanthanide donor and a delayed reading to cut background.

Assay [7] concerns Glioblastoma cell line. Description: Antitumor immunity against glioblastoma bearing C57BL/6 mouse model assessed as tumor infiltrating lymphocytes by measuring increase in CD3+CD4+T cells at 100 mg/kg, IG (reference value: 0.91%). The format is functional.
A short description of assay [8]: In vivo antitumor activity against […] GL261 cells xenografted in C57BL/6 mouse assessed as decrease in PD-L1 expression in tumor tissue at 100 mg/kg, IG treated for 21 days relative to control. The format is functional. Set-up: scale not given: the % may be the effect or the level left. Particulars: time 21 day.
Assay [9] can be described thus: In vivo antitumor activity against […] GL261 cells xenografted in C57BL/6 mouse assessed as decrease in EGFR phosphorylation in tumor tissue at 100 mg/kg, IG treated for 21 days relative to control. Set-up: scale not given: the % may be the effect or the level left. Particulars: time 21 day. The format is functional.

Sequence of Programmed cell death protein 1/Programmed cell death 1 ligand 1 (Q15116 whole entry): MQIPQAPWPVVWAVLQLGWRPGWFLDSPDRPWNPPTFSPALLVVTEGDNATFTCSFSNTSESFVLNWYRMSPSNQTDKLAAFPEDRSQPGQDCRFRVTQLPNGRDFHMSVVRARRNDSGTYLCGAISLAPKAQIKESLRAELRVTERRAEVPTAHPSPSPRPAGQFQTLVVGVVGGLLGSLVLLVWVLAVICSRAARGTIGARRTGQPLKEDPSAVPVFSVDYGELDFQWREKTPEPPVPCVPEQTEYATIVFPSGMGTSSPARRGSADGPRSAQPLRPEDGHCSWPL
Sequence of Programmed cell death protein 1/Programmed cell death 1 ligand 1 (Q9NZQ7 whole entry): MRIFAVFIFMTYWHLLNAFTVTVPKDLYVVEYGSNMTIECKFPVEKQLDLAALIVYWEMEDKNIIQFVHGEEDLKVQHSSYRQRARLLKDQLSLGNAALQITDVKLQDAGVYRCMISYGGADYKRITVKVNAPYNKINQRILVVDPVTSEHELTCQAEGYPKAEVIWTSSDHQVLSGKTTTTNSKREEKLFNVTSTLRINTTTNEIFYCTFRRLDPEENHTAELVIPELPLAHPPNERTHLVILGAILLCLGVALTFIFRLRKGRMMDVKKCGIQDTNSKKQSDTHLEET
Description for U-251: Antiproliferative activity against human U-251 cells incubated for 72 hrs by MTT assay
Description for U-87 MG: Antiproliferative activity against human U-87 MG cells incubated for 72 hrs by MTT assay

On to `COc1cc(OCc2cccc(-c3ccccc3)c2C)ccc1CNCCCOc1cc2c(Nc3ccc(F)c(Cl)c3)ncnc2cc1OC`, for which the IC50 came to 4010 nM in the assay with U-87 MG, 5460 nM in the assay “cells [1]”, 960 nM in “cells [2]” and 3490 nM in the assay on U-251.

For `COc1cc2ncnc(Nc3ccc(F)c(Cl)c3)c2cc1OCCCCCCNC(=O)C1CCCCN1Cc1ccc(OCc2cccc(-c3ccccc3)c2C)c(C)c1` (configuration not stated), the IC50 in the assay on U-87 MG, in the assay “cells [1]”, in “cells [2]” and with U-251 was over 20000 nM each time.

Consider `COc1cc2ncnc(Nc3ccc(F)c(Cl)c3)c2cc1OC(=O)N1CCN(Cc2ccc(-c3cccc(-c4ccccc4)c3C)nc2OC)CC1`, for which the IC50 in the assay with U-87 MG, in the assay “cells [1]”, in “cells [2]” and with U-251 was over 20000 nM throughout.

On to `COc1cc(OCc2cccc(-c3ccccc3)c2C)ccc1CNCCCCOc1cc2c(Nc3ccc(F)c(Cl)c3)ncnc2cc1OC`, for which the IC50 in the assay on U-87 MG is 2600 nM; in the assay “cells [1]”, 1970 nM; in the assay “cells [2]”, 800 nM; in the assay with U-251 it was 1470 nM.

As for `COc1cc2ncnc(Nc3ccc(F)c(Cl)c3)c2cc1OCCCCCCNC(=O)C1CCCCN1Cc1c(OC)cc(OCc2cccc(-c3ccccc3)c2C)cc1OC` (configuration not stated), the IC50 in the assay on U-87 MG, in “cells [1]”, in the assay “cells [2]” and with U-251 was over 20000 nM throughout.

As for `COc1cc2ncnc(Nc3ccc(F)c(Cl)c3)c2cc1OCCCCNC(=O)C1CCCCN1Cc1ccc(-c2cccc(-c3ccccc3)c2C)nc1OC` (configuration not stated), the IC50 in the assay on U-87 MG, in “cells [1]”, in “cells [2]” and with U-251 was over 20000 nM each time.

Regarding `COc1cc2ncnc(Nc3ccc(F)c(Cl)c3)c2cc1OCCCCNCc1ccc(OCc2cccc(-c3ccccc3)c2C)c(C)c1`, the IC50 in the assay with U-87 MG was 890 nM; in “cells [1]”, 2250 nM; in the assay “cells [2]”, 730 nM; in the assay on U-251, 1380 nM.

In the case of `COc1cc2ncnc(Nc3ccc(F)c(Cl)c3)c2cc1OCCCCCCCCNCc1ccc(-c2cccc(-c3ccccc3)c2C)nc1OC`, the IC50 in the assay with U-87 MG turned out to be 1150 nM; in “cells [1]”, 3300 nM; in “cells [2]”, 2010 nM; in the assay with U-251, 3530 nM.

On to `COc1cc2ncnc(Nc3ccc(F)c(Cl)c3)c2cc1OCCCCCCNCc1c(OC)cc(OCc2cccc(-c3ccccc3)c2C)cc1OC`, for which the IC50 was 2850 nM in the assay with U-87 MG, 2760 nM in the assay “cells [1]”, 540 nM in the assay “cells [2]” and 1550 nM with U-251.

As to `COc1cc2ncnc(Nc3ccc(F)c(Cl)c3)c2cc1OCCCCCNC(=O)C1CCCCN1Cc1c(OC)cc(OCc2cccc(-c3ccccc3)c2C)cc1OC` (configuration not stated), the IC50 with U-87 MG, in “cells [1]”, in the assay “cells [2]” and with U-251 was over 20000 nM each time.

Turning to `COc1cc2ncnc(Nc3ccc(F)c(Cl)c3)c2cc1OCCCCCNCc1c(OC)cc(OCc2cccc(-c3ccccc3)c2C)cc1OC`, the IC50 with U-87 MG worked out at 1350 nM; in the assay “cells [1]” it was 2240 nM; in “cells [2]”, 440 nM; in the assay with U-251 it was 1040 nM.

Turning to `COc1cc2ncnc(Nc3ccc(F)c(Cl)c3)c2cc1OCCCCCNCc1ccc(-c2cccc(-c3ccccc3)c2C)nc1OC`, the IC50 with U-87 MG was found to be 3380 nM; in the assay “cells [1]”, 2160 nM; in the assay “cells [2]” it was 530 nM; in the assay on U-251, 1350 nM.

Take `COc1cc2ncnc(Nc3ccc(F)c(Cl)c3)c2cc1OCCCCCNC(=O)C1CCCCN1Cc1ccc(-c2cccc(-c3ccccc3)c2C)nc1OC` (configuration not stated): the IC50 with U-87 MG, in “cells [1]”, in the assay “cells [2]” and in the assay with U-251 was over 20000 nM in each case.

For `COc1cc2ncnc(Nc3ccc(F)c(Cl)c3)c2cc1OCCCCNCc1c(OC)cc(OCc2cccc(-c3ccccc3)c2C)cc1OC`, the IC50 with U-87 MG stood at 860 nM; in the assay “cells [1]” it was 1790 nM; in “cells [2]”, 360 nM; in the assay on U-251, 1330 nM.

On to `COc1cc2ncnc(Nc3ccc(F)c(Cl)c3)c2cc1OCCCNCc1c(OC)cc(OCc2cccc(-c3ccccc3)c2C)cc1OC`, for which the 50% inhibitory concentration (IC50) was 1060 nM with U-87 MG, 2390 nM in the assay “cells [1]”, 1390 nM in “cells [2]” and 1470 nM in the assay on U-251.

Consider `COc1cc2ncnc(Nc3ccc(F)c(Cl)c3)c2cc1OCCCNCc1ccc(-c2cccc(-c3ccccc3)c2C)nc1OC`, for which the half-inhibitory concentration (IC50) with U-87 MG was determined as 1080 nM; in the assay “cells [1]” it was 2630 nM; in the assay “cells [2]”, 820 nM; in the assay with U-251, 5120 nM.

Regarding `COc1cc2ncnc(Nc3ccc(F)c(Cl)c3)c2cc1OCCNCc1ccc(-c2cccc(-c3ccccc3)c2C)nc1OC`, the IC50 in the assay on U-87 MG was 5760 nM; in “cells [1]” it was 6860 nM; in the assay “cells [2]”, 1140 nM; in the assay with U-251, 2640 nM.

Take `COc1cc2ncnc(Nc3ccc(F)c(Cl)c3)c2cc1OCCCCNCc1ccc(-c2cccc(-c3ccccc3)c2C)nc1OC`: the IC50 with U-87 MG is 1030 nM; in the assay “cells [1]”, 2720 nM; in “cells [2]” it was 2610 nM; in the assay with U-251, 2850 nM.

Take `Cc1c(COc2cc(OCc3cccc(C#N)c3)c(CNC(C)(C)C(=O)O)cc2Cl)cccc1-c1ccccc1`: the IC50 with U-87 MG is over 20000 nM; in “cells [1]”, over 20000 nM; in “cells [2]”, over 20000 nM; with U-251, over 20000 nM; in assay [6], 56.2 nM. The Activity is listed as 71.1% in [3], 77.2% in assay [4], 19.7% with Glioblastoma cell line [5] and 24.7% with Glioblastoma cell line [7].

In the case of `COc1cc(OCc2cccc(-c3ccccc3)c2C)ccc1CNCCCCOc1cc2c(Nc3cccc(Cl)c3F)ncnc2cc1OC`, the half-maximal inhibitory concentration (IC50) with U-87 MG stood at 840 nM; in “cells [1]”, 1240 nM; in the assay “cells [2]”, 290 nM; in the assay with U-251, 1290 nM.

`COc1cc2ncnc(Nc3ccc(F)c(Cl)c3)c2cc1OCCCN1CCOCC1` [GEFITINIB]: the Activity is recorded as about 15% in assay [8], 71.2% in assay [3], about 30% in assay [9] and 77.2% in [4].

For `COc1cc2ncnc(Nc3ccc(F)c(Cl)c3)c2cc1OCCCCCNC(=O)CN(C)Cc1c(OC)cc(OCc2cccc(-c3ccccc3)c2C)cc1OC`, the IC50 in the assay with U-87 MG is 5160 nM; in “cells [1]”, over 20000 nM; in “cells [2]” it was 3120 nM; with U-251, over 20000 nM.

Turning to `COc1cc2ncnc(Nc3ccc(F)c(Cl)c3)c2cc1OCCCCCCCCNC(=O)CN(C)Cc1c(OC)cc(OCc2cccc(-c3ccccc3)c2C)cc1OC`, the IC50 in the assay with U-87 MG, in the assay “cells [1]”, in the assay “cells [2]” and in the assay on U-251 was over 20000 nM each time.

`COc1cc2ncnc(Nc3ccc(F)c(Cl)c3)c2cc1OCCCCCCNCc1ccc(-c2cccc(-c3ccccc3)c2C)nc1OC`: the 50% inhibitory concentration (IC50) was determined as 1080 nM in the assay with U-87 MG, 3250 nM in the assay “cells [1]”, 730 nM in “cells [2]” and 1870 nM in the assay on U-251.

As for `COc1cc2ncnc(Nc3ccc(F)c(Cl)c3)c2cc1OCCCCCCNC(=O)CCN(C)Cc1ccc(-c2cccc(-c3ccccc3)c2C)nc1OC`, the half-maximal inhibitory concentration (IC50) with U-87 MG, in “cells [1]”, in “cells [2]” and in the assay with U-251 was over 20000 nM each time.

For the molecule `COc1cc2ncnc(Nc3ccc(F)c(Cl)c3)c2cc1OCCNCc1c(OC)cc(OCc2cccc(-c3ccccc3)c2C)cc1OC`, the IC50 in the assay with U-87 MG was found to be 3330 nM; in the assay “cells [1]”, 3220 nM; in “cells [2]”, 2840 nM; in the assay with U-251, 1960 nM.

As for `COc1nc(OCc2cccc(-c3ccccc3)c2C)ccc1CNCCNC(C)=O`, the concentration for half-maximal inhibition (IC50) turned out to be 3720 nM in the assay on U-87 MG, 5720 nM in “cells [1]”, 8030 nM in “cells [2]” and 2980 nM with U-251.

Regarding `COc1cc2ncnc(Nc3ccc(F)c(Cl)c3)c2cc1OC(=O)N1CCN(Cc2c(OC)cc(OCc3cccc(-c4ccccc4)c3C)cc2OC)CC1`, the IC50 with U-87 MG, in the assay “cells [1]”, in “cells [2]” and in the assay with U-251 was over 20000 nM throughout.

A word on the IC50: it is the point on the concentration scale where inhibition reaches its midpoint.
